For 35 compounds, EC50 results are on record in patent US9018208B2, “Heterocycles as potassium channel modulators” (Icagen Inc., priority 2007, dated 2015).

Molecules are shown by their SMILES.

The test system of the first assay is SH-SY5Y M-currents (KCNQ2, KCNQ3 and KCNQ5). In words: SH-SY5Y native cell line FLIPR assay (voltage-sensitive dye DiBAC). The format is cell-based, mouse neuroblastoma, rat glioma hybrid cell line. Particulars: FLIPR assay, SH-SY5Y native cell line; Table 2; read-out: SH-SY5Y EC50. The essentials: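 Response is peak DiBAC fluorescence change, normalised to the maximum from a positive control agent, sampled every 30 s over 25 min. Before compound addition, SH-SY5Y cells differentiated with PGE1 plus isomethylbutylxanthine were dye-loaded for 1 h in EBSS with […] DiBAC.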
On to `CC(C)(C)CC(=O)Nc1nc2ncccn2c1-c1cccc(OC(F)(F)F)c1` [Compound 323, 3,3-dimethyl-N-(3-(3-(trifluoromethoxy)phenyl)imidazo[1,2-a]pyrimidin-2-yl)butanamide], for which the EC50 was 3000 to 10000 nM.

`O=C(Cc1ccc(F)cc1)Nc1nc2ncccn2c1-c1cccc(OC(F)(F)F)c1` [Compound 324, 2-(4-fluorophenyl)-N-(3-(3-(trifluoromethoxy)phenyl)imidazo[1,2-a]pyrimidin-2-yl)acetamide]: the 50% effective concentration (EC50) is 3000 to 10000 nM.

For `CC(CC(=O)Nc1nc2ncccn2c1-c1cccc(OC(F)(F)F)c1)C(F)(F)F` (centres unmarked) [Compound 325, 4,4,4-trifluoro-3-methyl-N-(3-(3-(trifluoromethoxy)phenyl)imidazo[1,2-a]pyrimidin-2-yl)butanamide], the EC50 fell in the range of 3000 to 10000 nM.

Take `O=C(Nc1nc2ccc(F)cn2c1-c1ccc(OC(F)(F)F)cc1)C1CCC(F)(F)CC1` [Compound 326, 4,4-difluoro-N-(6-fluoro-3-(4-(trifluoromethoxy)phenyl)imidazo[1,2-a]pyridin-2-yl)cyclohexanecarboxamide]: the EC50 was less than 500 nM.

In the case of `O=C(Nc1nc2ccc(F)cn2c1-c1cccc(OC(F)(F)F)c1)C1CCC(F)(F)CC1` [Compound 327, 4,4-difluoro-N-(6-fluoro-3-(3-(trifluoromethoxy)phenyl)imidazo[1,2-a]pyridin-2-yl)cyclohexanecarboxamide], the EC50 was less than 500 nM.

Turning to `O=C(Nc1nc2ccc(F)cn2c1-c1cccc(C(F)(F)F)c1)C1CCC(F)(F)CC1` [Compound 328, 4,4-difluoro-N-(6-fluoro-3-(3-(trifluoromethyl)phenyl)imidazo[1,2-a]pyridin-2-yl)cyclohexanecarboxamide], the EC50 was less than 500 nM.

For the compound `CC(C)(C)CC(=O)Nc1nc2ncccn2c1-c1cccc(Cl)c1` [Compound 329, N-(3-(3-chlorophenyl)imidazo[1,2-a]pyrimidin-2-yl)-3,3-dimethylbutanamide], the EC50 fell in the range of 3000 to 10000 nM.

`O=C(Cc1ccc(F)cc1)Nc1nc2ncccn2c1-c1cccc(Cl)c1` [Compound 330, N-(3-(3-chlorophenyl)imidazo[1,2-a]pyrimidin-2-yl)-2-(4-fluorophenyl)acetamide]: the EC50 was 3000 to 10000 nM.

As for `CC(CC(=O)Nc1nc2ncccn2c1-c1cccc(Cl)c1)C(F)(F)F` (centres unmarked) [Compound 331, N-(3-(3-chlorophenyl)imidazo[1,2-a]pyrimidin-2-yl)-4,4,4-trifluoro-3-methylbutanamide], the EC50 was 3000 to 10000 nM.

In the case of `CC(C)(C)CC(=O)Nc1nc2ncc(F)cn2c1-c1cccc(C(F)(F)F)c1` [Compound 332, N-(6-fluoro-3-(3-(trifluoromethyl)phenyl)imidazo[1,2-a]pyrimidin-2-yl)-3,3-dimethylbutanamide], the EC50 was in the range of 3000 to 10000 nM.

As to `CC(C)(C)CC(=O)Nc1nc2ncc(F)cn2c1-c1cccc(OC(F)(F)F)c1` [Compound 333, N-(6-fluoro-3-(3-(trifluoromethoxy)phenyl)imidazo[1,2-a]pyrimidin-2-yl)-3,3-dimethylbutanamide], the EC50 lay in the range of 500 to 3000 nM.

As for `O=C(Nc1nc2ccc(F)cn2c1-c1ccc(OC(F)(F)F)c(F)c1)C1CCC1` [Compound 334, N-(6-fluoro-3-(3-fluoro-4-(trifluoromethoxy)phenyl)imidazo[1,2-a]pyridin-2-yl)cyclobutanecarboxamide], the EC50 lay within 500 to 3000 nM.

Consider `O=C(Nc1nc2ccc(F)cn2c1-c1cccc(Cl)c1)C1CCC1` [Compound 335, N-(3-(3-chlorophenyl)-6-fluoroimidazo[1,2-a]pyridin-2-yl)cyclobutanecarboxamide], for which the concentration for a half-maximal effect (EC50) fell in the range of 500 to 3000 nM.

`CC(C)(C)CC(=O)Nc1nc2ccccn2c1-c1cccc(C(F)(F)F)c1` [Compound 336, 3,3-dimethyl-N-(3-(3-(trifluoromethyl)phenyl)imidazo[1,2-a]pyridin-2-yl)butanamide]: the EC50 was in the range of 500 to 3000 nM.

On to `CC(CC(=O)Nc1nc2ccccn2c1-c1cccc(C(F)(F)F)c1)C(F)(F)F` (centres unmarked) [Compound 337, 4,4,4-trifluoro-3-methyl-N-(3-(3-(trifluoromethyl)phenyl)imidazo[1,2-a]pyridin-2-yl)butanamide], for which the EC50 was in the range of 500 to 3000 nM.

For the compound `O=C(Cc1ccc(F)cc1)Nc1nc2ccccn2c1-c1cccc(C(F)(F)F)c1` [Compound 338, 2-(4-fluorophenyl)-N-(3-(3-(trifluoromethyl)phenyl)imidazo[1,2-a]pyridin-2-yl)acetamide], the EC50 lay within 500 to 3000 nM.

On to `COc1ccc2nc(NC(=O)CC(C)(C)C)c(-c3cccc(C(F)(F)F)c3)n2n1` [Compound 339, N-(6-methoxy-3-(3-(trifluoromethyl)phenyl)imidazo[1,2-b]pyridazin-2-yl)-3,3-dimethylbutanamide], for which the EC50 is 500 to 3000 nM.

Consider `CC(=O)O[C@H](C(=O)Nc1nc2ccc(F)cn2c1-c1ccc(C(F)(F)F)cc1)C(C)(C)C` [Compound 340, (S)-1-(6-fluoro-3-(4-(trifluoromethyl)phenyl)imidazo[1,2-a]pyridin-2-ylamino)-3,3-dimethyl-1-oxobutan-2-yl acetate], for which the EC50 was in the range of 3000 to 10000 nM.

Turning to `CC(C)(C)[C@H](O)C(=O)Nc1nc2ccc(F)cn2c1-c1ccc(C(F)(F)F)cc1` [Compound 341, (S)—N-(6-fluoro-3-(4-(trifluoromethyl)phenyl)imidazo[1,2-a]pyridin-2-yl)-2-hydroxy-3,3-dimethylbutanamide], the EC50 lay in the range of 500 to 3000 nM.

For the compound `CC(C)(C)CC(=O)Nc1nc2ccccn2c1-c1cccc(OC(F)(F)F)c1` [Compound 342, 3,3-dimethyl-N-(3-(3-(trifluoromethoxy)phenyl)imidazo[1,2-a]pyridin-2-yl)butanamide], the EC50 is less than 500 nM.

For `CC(CC(=O)Nc1nc2ccccn2c1-c1cccc(OC(F)(F)F)c1)C(F)(F)F` (centres unmarked) [Compound 343, 4,4,4-trifluoro-3-methyl-N-(3-(3-(trifluoromethoxy)phenyl)imidazo[1,2-a]pyridin-2-yl)butanamide], the EC50 fell in the range of 500 to 3000 nM.

As to `O=C(Cc1ccc(F)cc1)Nc1nc2ccccn2c1-c1cccc(OC(F)(F)F)c1` [Compound 344, 2-(4-fluorophenyl)-N-(3-(3-(trifluoromethoxy)phenyl)imidazo[1,2-a]pyridin-2-yl)acetamide], the EC50 was less than 500 nM.

As to `O=C(Nc1nc2ccc(F)cn2c1-c1ccc(C(F)(F)F)cc1)N1CCC(F)(F)CC1` [Compound 345, 4,4-difluoro-N-(6-fluoro-3-(4-(trifluoromethyl)phenyl)imidazo[1,2-a]pyridin-2-yl)piperidine-1-carboxamide], the EC50 lay in the range of 500 to 3000 nM.

For `COc1ccc2nc(NC(=O)CC(C)(C)C)c(-c3cccc(OC(F)(F)F)c3)n2n1` [Compound 346, N-(6-methoxy-3-(3-(trifluoromethoxy)phenyl)imidazo[1,2-b]pyridazin-2-yl)-3,3-dimethylbutanamide], the EC50 is less than 500 nM.

Still in this assay, the particulars now being: SH-SY5Y native cell line, FLIPR assay (Table 3); read-out: SH-SY5Y EC50.
Turning to `CC(C)(C)CC(=O)Nc1nc2ccc(F)cn2c1-c1ccccn1` [Compound 347, N-(6-fluoro-3-(pyridin-2-yl)imidazo[1,2-a]pyridin-2-yl)-3,3-dimethylbutanamide], the 50% effective concentration (EC50) fell in the range of 3000 to 10000 nM.

With `CC(C)(C)CC(=O)Nc1nc2ccc(F)cn2c1-c1cccnc1` [Compound 348, N-(6-fluoro-3-(pyridin-3-yl)imidazo[1,2-a]pyridin-2-yl)-3,3-dimethylbutanamide], the 50% effective concentration (EC50) lay within 3000 to 10000 nM.

For the compound `CC(C)(C)CC(=O)Nc1nc2ccc(F)cn2c1-c1ccc(F)nc1` [Compound 349, N-(6-fluoro-3-(6-fluoropyridin-3-yl)imidazo[1,2-a]pyridin-2-yl)-3,3-dimethylbutanamide], the EC50 lay within 500 to 3000 nM.

Consider `CC(C)(C)CC(=O)Nc1nc2ccc(F)cn2c1-c1ccc(C#N)nc1` [Compound 350, N-(3-(6-cyanopyridin-3-yl)-6-fluoroimidazo[1,2-a]pyridin-2-yl)-3,3-dimethylbutanamide], for which the EC50 lay in the range of 500 to 3000 nM.

Regarding `CC(C)(C)CC(=O)Nc1nc2ccc(F)cn2c1-c1ccncc1` [Compound 351, N-(6-fluoro-3-(pyridin-4-yl)imidazo[1,2-a]pyridin-2-yl)-3,3-dimethylbutanamide], the EC50 fell in the range of 3000 to 10000 nM.

As for `CC(C)(C)CC(=O)Nc1nc2ccc(F)cn2c1-c1ccc(F)cn1` [Compound 352, N-(6-fluoro-3-(5-fluoropyridin-2-yl)imidazo[1,2-a]pyridin-2-yl)-3,3-dimethylbutanamide], the EC50 was in the range of 500 to 3000 nM.

As to `CC(C)(C)CC(=O)Nc1nc2ccc(F)cn2c1-c1ccc(C#N)cn1` [Compound 354, N-(3-(5-cyanopyridin-2-yl)-6-fluoroimidazo[1,2-a]pyridin-2-yl)-3,3-dimethylbutanamide], the EC50 was 3000 to 10000 nM.

Consider `CC(C)(C)CC(=O)Nc1nc2ccc(F)cn2c1-c1cncc(C(F)(F)F)c1` [Compound 355, N-(6-fluoro-3-(5-(trifluoromethyl)pyridin-3-yl)imidazo[1,2-a]pyridin-2-yl)-3,3-dimethylbutanamide], for which the EC50 fell in the range of 3000 to 10000 nM.

In the case of `Cc1ccc(-c2c(N(C(=O)CC(C)(C)C)C(=O)CC(C)(C)C)nc3ccc(F)cn23)nc1` [Compound 356, N-(3,3-dimethylbutanoyl)-N-(6-fluoro-3-(5-methylpyridin-2-yl)imidazo[1,2-a]pyridin-2-yl)-3,3-dimethylbutanamide], the EC50 was in the range of 3000 to 10000 nM.

With `CC(C)(C)CC(=O)N(C(=O)CC(C)(C)C)c1nc2ccc(F)cn2c1-c1cccc(C(F)(F)F)n1` [Compound 357, N-(3,3-dimethylbutanoyl)-N-(6-fluoro-3-(6-(trifluoromethyl)pyridin-2-yl)imidazo[1,2-a]pyridin-2-yl)-3,3-dimethylbutanamide], the EC50 lay within 3000 to 10000 nM.

`CC(C)(C)CC(=O)N(C(=O)CC(C)(C)C)c1nc2ccc(F)cn2c1-c1nc2ccccc2s1` [Compound 358, N-(3-(benzo[d]thiazol-2-yl)-6-fluoroimidazo[1,2-a]pyridin-2-yl)-N-(3,3-dimethylbutanoyl)-3,3-dimethylbutanamide]: the concentration for a half-maximal effect (EC50) lay in the range of 3000 to 10000 nM.

In general, EC50 refers to the midpoint of the concentration-response curve.
